The source of these data is publication PMC10581520 (Veterinární Medicína, 2023).

SMILES strings stand for the structures. Where “and” joins values, the source holds several entries; their conditions need not be identical. Equal values may be shown once. Read-outs that look alike come from different tables or passages of the source.

In data set [1] the test system is patients. The settings on record: cited from earlier work; for arrhythmia risk category: associated risk of arrhythmia and possible TdP risk, ref Fanoe et al. 2014; for effect on QTc-interval and risk for torsades de pointes (TdP): patients; for risk group classification: ref www.crediblemeds.org.
Data set [2] concerns Beagle dogs. The note with it: cited from earlier work.
For data set [3] the following is noted: in dogs; ref Matsui et al. 1995; cited from earlier work.
The subject of data set [4] is Human liver microsomes. The note with it: cited from earlier work.
Data set [5] is described as follows: Kinetic study: N-demethylation of CIT and DCIT in Beagle dog liver microsomes. The settings on record: Beagle, dog, liver microsomes, pH 7.4. It is filed as in vitro ADME. Background: Liver microsomes are vesicles of endoplasmic reticulum, rich in cytochrome P450 enzymes.
Data set [6] concerns Beagle dog liver microsomes. The description is as above. The format is in vitro ADME. The note with it: for IC of N-demethylation, Beagle dogs versus humans: liver microsomes, dog data of this study compared with literature human data; for Km1 / Km2 / Vmax1 / Vmax2: dog liver microsomes.
For data set [7], the system named is serotonin [5-hydroxytryptamine (5-HT)] reuptake. The settings on record: compared with S-CIT; ref Hyttel et al. 1992; Hyttel 1993; cited from earlier work.
The subject of data set [8] is dog liver microsomes (CYP2D15, CYP3A12, CYP2C21/41). The format is in vitro ADME, Beagle dog. The settings on record: for effect on the production of the DCIT and DDCIT enantiomers: dog liver microsomes, data not shown.
Data set [9] has as its system N-demethylation of DCIT; CYP3A12 (ketoconazole), CYP2C21/41 (omeprazole). It is filed as in vitro ADME, Beagle dog. The note with it: Beagle, dog, liver microsomes, pH 7.4, probe DCIT 10 and 100 μM, formation of DDCIT.
Data set [10] deals with N-demethylation of DCIT; CYP2D15 (quinidine). It is filed as in vitro ADME, Beagle dog. The settings on record: Beagle, dog, liver microsomes.
Where [11] appears, read: substrate CIT, metabolite R-DCIT.
[12] abbreviates: substrate CIT, metabolite S-DCIT.
Setting [13] is: substrate DCIT, metabolite DDCIT.
Setting [14] is: substrate DCIT, metabolite R-DDCIT.
[15] abbreviates: substrate DCIT, metabolite S-DDCIT.
Setting [16] is: 100 μM quinidine, 10 μM DCIT, n = 3.

In the case of `CN(C)CCCC1(c2ccc(F)cc2)OCc2cc(C#N)ccc21` (stereo not shown) [CIT, citalopram], in [1], the arrhythmia risk category result was “Class B”; the “effect on QTc-interval and risk for torsades de pointes (TdP)” value was “increase the QTc-interval”; the risk group classification entry is listed as “risk group 1”. Moreover, in data set [2] (dogs, ref Boeck and Overo 1982), the “convulsive effect in dogs” value is given as “severe convulsive attacks” and the “electrocardiographic changes in dogs” value is recorded as “no electrocardiographic changes were observed”. For the same compound, in [3], the mean elimination half-life is given as 9.6 h. Besides, the Km – broadly, the concentration of substrate that gives half-maximal velocity – in data set [4] (read-out: Km values, stereoselective CIT N-demethylation, human liver microsomes, ref Rochat et al. 1997, Olesen and Linnet 1999, von Moltke et al. 2001) is not below 17.3 µM. In addition, the Michaelis-Menten constant (Km) at 1 h in data set [5] was not above 1.4 µM. Further, the “IC of N-demethylation, Beagle dogs versus humans” value in [6] is recorded as “about 10 times higher”. Besides, in data set [6] (substrate CIT, metabolite DCIT), the Km1 was 1.1 µM and 1.1 ± 0.3 µM; the Km2 is 1 006 μM; the Vmax1 is recorded as 47 ± 3 pmol/(min × mg of protein); the Vmax2 is reported as 591 ± 28 pmol/(min × mg of protein). Further, in data set [6] (setting [11]), the Km1 was found to be 1.4 ± 0.5 µM, the Vmax1 is recorded as 21 ± 2 pmol/(min × mg of protein) and the Vmax2 was 338 ± 24 pmol/(min × mg of protein). In addition, in [6] (setting [12]), the Km1 was 1.0 ± 0.2 µM, the Km2 came to 848 ± 69 µM, the Vmax1 is given as 26 ± 1 pmol/(min × mg of protein) and the Vmax2 is on record as 264 ± 10 pmol/(min × mg of protein).
With `CNCCCC1(c2ccc(F)cc2)OCc2cc(C#N)ccc21` (stereo not shown) [DCIT, desmethylcitalopram], the mean elimination half-life in data set [3] was 8.1 h. Also, the “potency as serotonin reuptake inhibitors” value in data set [7] is listed as “lower than that of S-CIT”. The “IC values, N-demethylation of DCIT enantiomers” value in data set [4] (humans, ref von Moltke et al. 2001) is listed as ≤ 1.3 pmol/(min × mg protein). Further, in data set [4] (read-out: Km values, N-demethylation of DCIT enantiomers, humans, ref von Moltke et al. 2001), the Km is not below 72 µM. Moreover, the Michaelis-Menten constant (Km) at 1 h in data set [5] was not above 1.4 µM. Also, the “IC of N-demethylation, Beagle dogs versus humans” value in [6] is listed as “about 30 times higher”. Further, in data set [6] (setting [13]), the Km1 was 0.6 ± 0.2 µM, the Km2 was 137 ± 18 µM, the Vmax1 is 44 ± 4 pmol/(min × mg of protein) and the Vmax2 is given as 155 ± 5 pmol/(min × mg of protein). For the same compound, in [6] (setting [14]), the Km1 turned out to be 0.3 ± 0.2 µM; the Km2 is 212 µM and 212 ± 24 µM; the Vmax1 is on record as 11 ± 2 pmol/(min × mg of protein); the Vmax2 is reported as 105 ± 3 pmol/(min × mg of protein). Further, in data set [6] (setting [15]), the Km1 is 0.6 ± 0.1 µM; the Km2 is 66 µM and 66 ± 11 µM; the Vmax1 is recorded as 31 ± 3 pmol/(min × mg of protein); the Vmax2 is 55 ± 2 pmol/(min × mg of protein).
For the compound `N#Cc1ccc2c(c1)COC2(CCCN)c1ccc(F)cc1` (stereo not shown) [DDCIT, didesmethylcitalopram], the “plasma level to which DDCIT toxicity is related” value in data set [2] (dog, ref Shanks et al. 2009) was ≥ 1 000 nM and ≥ 300 ng/ml. For the same compound, the mean elimination half-life in data set [3] is 27.8 h. In addition, the “potency as serotonin reuptake inhibitors” value in [7] is listed as “lower than that of S-CIT”.
Regarding `CN(C)CCC[C@@]1(c2ccc(F)cc2)OCc2cc(C#N)ccc21` [S-CIT, S-citalopram], in [1], the arrhythmia risk category entry is “Class B”; the “effect on QTc-interval and risk for torsades de pointes (TdP)” value is “increase the QTc-interval”; the risk group classification entry was “risk group 1”.
As for `Cc1nc2c([nH]1)c(=O)n(C)c(=O)n2Cc1ccco1` [furafylline], in data set [8], the “effect on the production of the DCIT and DDCIT enantiomers” value is “did not notably modify”.
As to `CC(=O)N1CCN(c2ccc(OCC3COC(Cn4ccnc4)(c4ccc(Cl)cc4Cl)O3)cc2)CC1` (stereo not shown) [ketoconazole], the inhibition (in general, the percentage by which the read-out fell short of the control) at 1 h in data set [9] was less than 15%.
With `COc1ccc2[nH]c([S+]([O-])Cc3ncc(C)c(OC)c3C)nc2c1` (stereo not shown) [omeprazole], the inhibition at 1 h in data set [9] is less than 15%.
In the case of `C=C[C@H]1C[N@@]2CC[C@H]1C[C@@H]2[C@@H](O)c1ccnc2ccc(OC)cc12` [quinidine], the “difference in the production of S-DCIT from CIT in comparison to absence of the inhibitor” value in data set [8] (100 μM quinidine, 10 μM CIT, n = 5) is given as 36.9 ± 8.53 pmol/(min × mg protein). The “difference of the production of R-DDCIT in comparison to absence of the inhibitor” value in data set [8] (setting [16]) is given as 63.3 ± 2.72 pmol/(min × mg protein). For the same compound, the “difference of the production of S-DDCIT in comparison to absence of the inhibitor” value in data set [8] (setting [16]) is reported as 172 ± 6.6 pmol/(min × mg protein). In addition, the inhibition at 1 h, 100 μM in data set [10] (pH 7.4, probe DCIT 10 μM, formation of R-DDCIT) was 80.5%; in [10] (pH 7.4, probe DCIT 10 μM, formation of S-DDCIT), 86.4%; in data set [10] (pH 7.4, probe DCIT 100 μM, formation of R-DDCIT), 61.6%; in data set [10] (pH 7.4, probe DCIT 100 μM, formation of S-DDCIT), 57.6%.
Turning to `Nc1ccc(S(=O)(=O)Nc2ccnn2-c2ccccc2)cc1` [sulphaphenazole], the “effect on the production of the DCIT and DDCIT enantiomers” value in data set [8] was “did not notably modify”.
